This note sets out measurements from patent US8324219B2, “Substituted benzoimidazolyl-pyrazine compounds for inflammation and immune-related uses” (Synta Pharmaceuticals Corp., priority 2007, dated 2012).

Where a name gives a salt, the structure may show the parent alone.

This test deals with IL-2 production. The experiment in a line: Inhibition of IL-2 production in PHA-activated Jurkat cells (ELISA). Format: cell-based. The following applies: Homo sapiens, PHA 2.5 μg/mL. As to the method:
Jurkat cells were placed in a 96 well plate (0.5 million cells per well in 1% FBS medium) then a test compound of this invention was added at different concentrations. After 10 minutes, the cells were activated with PHA (final concentration 2.5 μg/mL) and incubated for 20 hours at 37° C. under CO2. The final volume was 200 μL. Following incubation, the cells were centrifuged and the supernatants were collected and stored at −70° C. prior to assaying for IL-2 production. A commercial ELISA kit (IL-2 Eli-pair, Diaclone Research, Besancon, France) was used to detect production of IL-2, from which dose response curves were obtained. The IC50 value was calculated as the concentration at which 50% of maximum IL-2 production after stimulation was inhibited versus a non-stimulation control.

Where the note is “20 hours”, `O=C(Nc1cnc(-n2c(C(F)(F)F)nc3cc(-c4nnco4)ccc32)cn1)c1c(F)cccc1F` [Compound 8, 2,6-Difluoro-N-[5-(5-[1,3,4]oxadiazol-2-yl-2-trifluoromethyl-benzoimidazol-1-yl)-pyrazin-2-yl]-benzamide] displayed a half-maximal inhibitory concentration (IC50) of 39 nM. For the compound `Cc1nnc(-c2ccc3c(c2)nc(C(F)(F)F)n3-c2cnc(NC(=O)c3c(F)cccc3F)cn2)o1` [Compound 9, 2,6-Difluoro-N-{5-[5-(5-methyl-[1,3,4]oxadiazol-2-yl)-2-trifluoromethyl-benzoimidazol-1-yl]-pyrazin-2-yl}-benzamide], inhibition (20 hours) was half-maximal at 84 nM (IC50).

Regarding `COc1ccc2c(c1)nc(C)n2-c1cnc(NC(=O)c2c(F)cccc2F)cn1` [Compound 3, 2,6-Difluoro-N-[5-(5-methoxy-2-methyl-benzoimidazol-1-yl)-pyrazin-2-yl]-benzamide], the IC50 (20 hours) came out at 102 nM. As for `O=C(Nc1cnc(-n2c(C(F)(F)F)nc3cc(O)ccc32)cn1)c1c(F)cccc1F` [Compound 4, 2,6-Difluoro-N-[5-(5-hydroxy-2-trifluoromethyl-benzoimidazol-1-yl)-pyrazin-2-yl]-benzamide, sodium salt], for the setting “Jurkat, 20 h”, the IC50 turned out to be 14 nM. `CN(C)c1ccc2c(c1)nc(C(F)(F)F)n2-c1cnc(NC(=O)c2c(F)cccc2F)cn1` [Compound 5, N-[5-(5-Dimethylamino-2-trifluoromethyl-benzoimidazol-1-yl)-pyrazin-2-yl]-2,6-difluoro-benzamide] returned an IC50 (20 hours) of 29 nM.

`Nc1ccc2c(c1)nc(C(F)(F)F)n2-c1cnc(NC(=O)c2c(F)cccc2F)cn1` [Compound 6, N-[5-(5-Amino-2-trifluoromethyl-benzoimidazol-1-yl)-pyrazin-2-yl]-2,6-difluoro-benzamide] registered an IC50 (20 hours) of 97 nM. The compound `O=C(Nc1cnc(-n2c(C(F)(F)F)nc3cc(O)ccc32)cn1)c1c(F)cccc1F` [Compound 1, 2,6-Difluoro-N-[5-(5-hydroxy-2-trifluoromethyl-benzoimidazol-1-yl)-pyrazin-2-yl]-benzamide] yielded an IC50 (20 hours) of 34 nM.

Compound `O=C(Nc1cnc(-n2c(C(F)(F)F)nc3cc([N+](=O)[O-])ccc32)cn1)c1c(F)cccc1F` [Compound 2, 2,6-Difluoro-N-[5-(5-nitro-2-trifluoromethyl-benzoimidazol-1-yl)-pyrazin-2-yl]-benzamide] had an IC50 (20 hours) of 89 nM.
